Assay results as given in patent publication US20090275632A1, “Methods of diagnosis and treatment” (OncoMethylome Sciences SA, priority 2006, published 2009).

Experiments:
miR-124a [1] = test: Expression of precursor miR-124a by conventional RT-PCR in HCT-116 cells; assay type: cell-based, human; details: 5-aza-2-deoxycytidine (1 µM) for 72 h
Description: (§1) GAPDH was used as internal control. PCR products were analyzed in a 3% agarose gel. Realtime PCR analysis of miRNAs was performed as previously described (Biotechniques 39:519-525). In brief, total RNA was isolated from cell lines or tissues using Trizol reagent and the small RNA fraction was further isolated using the miRVANA kit (Ambion). 500 ng of the small RNA fraction was polyadenylated by poly(A) polymerase (PAP, Ambion) at 37° C. for 1 hr in a 6 uL reaction. After phenol-chloroform extraction and ethanol precipitation the polyadenylated small RNAs were reversed transcribed according to the manufacturer's protocols using 200U SuperScript-II Reverse Transcriptase (RT, Invitrogen) and 0.5 ug poly(T) adapter (GCG AGC ACA GM TTAATACGACTCACTATAGGTTTTTTTTTT TTV N) (SEQ ID NO:36). The small cDNAs were then treated with RNAse H at 37° C. for 1 hr and finally diluted 240 fold. Negative controls were included in both PAP and RT reactions. Moreover, two additional RT reactions were performed using half and double the input of polyadenylated small RNAs to ensure the linearity of the reverse transcription step. Finally, the melting temperature for each miRNA was experimentally determined from the thermal dissociation curves using ABI Prism 7900HT (Applied Biosystems, Foster City, Calif., USA). […]

miR-124a [2] = test: Expression of mature miR-124a by quantitative RT-PCR in HCT-116 cells; assay type: cell-based, human; details: 5-aza-2-deoxycytidine (1 µM) for 72 h
Description: as §1, with “Moreover, two additional RT reactions were performed using half and double the input of polyadenylated small RNAs to ensure the linearity of the reverse transcription step.” left out
Each set of PCR reactions included a dilution series of a reference cDNA to be used for quantification.

miR-124a CpG island = test: Chromatin immunoprecipitation assay for histone modification marks and methyl-CpG binding domain proteins; assay type: cell-based, human; details: HCT-116 cells, 5-aza-2-deoxycytidine (1 µM) for 72 h
Description: Standard ChIP assays were performed as previously described (3). In brief, cells were treated with 1% formaldehyde for 15 min. Then, chromatin was sheared with a Bioruptor™ (Diagenode) to an average length of 0.4-0.8 kb for this analysis. The following antibodies were used: anti-MeCP2 (ab3752), anti-MBD2 (ab3754), and anti-trimethyl-K4 histone H3 (ab8580) (ab1220) (Abcam) and anti-acetyl H3 (06-599) and anti-acetyl H4 (06-598) (Upstate biotechnologies). PCR amplification was performed in 20 μl with specific primers for each of the analyzed promoters.
for miR-124a1 5′-CM AGA GCC TTT GGA AGA CG-3′ (sense) (SEQ ID NO: 40) and 5′-GGAAGAGGGGTGGGTAGAAG-3′ (antisense) (SEQ ID NO: 41), for miR-124a2 5′-GCGTGGTCCTTAAAAACCTG-3′ (sense) (SEQ ID NO: 42) and 5′-CCATGCCATTTACAGCACAC-3′ (antisense) (SEQ ID NO: 43); and for miR-124a3 5′-GGA GM GTG TGG GCT CCT C-3′ (sense) (SEQ ID NO: 44) and 5′-AAT CM GGT CCG CTG TGA AC-3′ (antisense) (SEQ ID NO:45). For each promoter, the sensitivity of PCR amplification was evaluated on serial dilutions of total DNA collected after sonication (input fraction). PCR amplifications were carried out with a variable number of cycles at 94° C. for 30 s, 60° C. for 30 s and 72° C. for 30 s. The amplified DNA was separated on 2% agarose gel and visualized with ethidium bromide.

CDK6 = test: Western blot for CDK6 in HCT-116 cells; assay type: cell-based, human; details: AZA 1 µM 72 h, miR-124a precursor 100 nM RNA duplexes, 48 h after transfection
Excerpt: (§2) Analyses of CDK6 and phosphorylated Rb expression by Western blot, immunohistochemistry and RT-PCR. We collected cells by centrifugation and washed cell pellets twice with phosphate-buffered saline buffer. Total extracts were fractionated on a SDS-PAGE gel and transferred to a polyvinylidene difluoride membrane with […] (Immobilon PSQ, Millipore). The membranes were blocked in 5% milk PBS-T (phosphate-buffered saline with 0.1% Tween-20) and immunoprobed with antibodies against CDK6 (1:1000; Cell Signaling) and P-Rb-S807/811 (1:1000; Cell Signaling). An antibody to β-actin (1:5000; Sigma) was used as a loading control. Immunoreactive bands were visualized using a chemiluminescent substrate (Amersham) after incubation of the membrane with secondary antibodies conjugated to horseradish peroxidase.

CDK6 mRNA = test: RT-PCR analyses of CDK6 mRNA in HCT-116 cells; assay type: cell-based, human; details: AZA 1 µM 72 h, miR-124a precursor 100 nM RNA duplexes, 48 h after transfection
Rb = test: Western blot for phosphorylated Rb (P-Rb-S807/811) in HCT-116 cells; assay type: cell-based, human; details: AZA 1 µM 72 h, miR-124a precursor 100 nM RNA duplexes, 48 h after transfection
Excerpt: as §2

miR-124a [3] = test: Expression analyses of miR-124a by RT-PCR in MCF-7 breast cancer cell line; details: MCF-7 cells (miR-124a methylated)
[4] = listed as DNA demethylating agent

What does the source list for Nc1ncn([C@H]2C[C@H](O)[C@@H](CO)O2)c(=O)n1 [AZA, 5-aza-2′-deoxycytidine]?
precursor miR-124a expression (miR-124a [1]): miR-124a upregulation; precursor miR-124a expression (miR-124a [1]; [4]): restored; mature miR-124a expression (miR-124a [2]): miR-124a upregulation; mature miR-124a expression (miR-124a [2]; [4]): restored; histone modification marks linked to transcriptional activity (acetylation of histones H3 and H4, trimethylation of lysine 4 of histone H3) in the miR-124a CpG island (miR-124a CpG island): the opposite scenario is observed; occupancy of the miR-124a CpG island by MBDs (MeCP2 and MBD2) (miR-124a CpG island): the opposite scenario is observed; histone modification marks linked to transcriptional activity (acetylation of histones H3 and H4, trimethylation of lysine 4 of histone H3) in the miR-124a CpG island (miR-124a CpG island; listed as demethylating agent): emergence of the histone marks of active transcription; occupancy of the miR-124a CpG island by MBDs (MeCP2 and MBD2) (miR-124a CpG island; listed as demethylating agent): release of binding by MBDs; CDK6 protein level (CDK6): reduction in CDK6 levels; CDK6 protein level (CDK6; listed as demethylating agent): CDK6 downregulation; CDK6 mRNA expression level (CDK6 mRNA): do not demonstrate any change; CDK6 mRNA expression level (CDK6 mRNA; listed as demethylating agent): no difference; phosphorylation of Rb in the residues 807 and 811 (Rb; [4]): hypophosphorylated; phosphorylation of Rb in the residues 807 and 811 (Rb; listed as demethylating drug): reduced Rb phosphorylation; miR-124a expression (miR-124a [3]): miR-124a upregulation
